Results published in US5807535A, “Metal complexes of hydroxyaryl containing aminocarboxylic acid chelating agents” (Australian Nuclear Science & Technology Organisation, priority 1992, dated 1998).
Where two headings read alike, the source gives them in different places.

Columns and labels:
[1] = Biodistribution of 99mTc complexes in rats; assay type: in vivo, Australian Albino Wistar Rats; conditions: for tissue uptake at 0.5 min / tissue uptake at 1 min / tissue uptake at 0.05 h / tissue uptake at 5 min / tissue uptake at 10 min: rat; for tissue uptake at 0.5 min: 30 sec
Description: (§1) A typical method of radiolabelling of the chelator was achieved by dissolving the chelator in a basic solution of saline. The pH was then adjusted to approx. 6 with HCl. Excess stannous chloride was added to the resultant solution followed by one equivalent volume of sodium ^99m TcO4 (10-50 mCi/ml). Final concentration of the chelator was approx. 1 mg/ml. The efficacy of labelling was determined by ITLC-SG. For each product only one main radiochemical species was observed. Each complex was diluted to 15 μCi/100 μl with saline. […] (See FIGS. 1A and 1B).
Selected data from biodistribution results of technetium-99m complexes of No. 1, No. 2 and No 4 in the liver, kidney and blood at 3 minutes is tabulated below.

[2] = Biodistribution of 99mTc complexes in mice; assay type: in vivo, Balb/c mice
Description: A series of derivatives incorporating carboxyl and phenolate donor groups (1-6) were synthesised by literature method and their radiolabelling characteristic and biological behaviour evaluated. Initial work involved an investigation of radiochemical properties of the ^99m Tc complexes of the ligands and their biodistribution in rats and mice (see Tables 1-6 and 8-12).
as §1

[3] = blood, rats, read-out: biodistribution blood
[4] = bone, rats, read-out: biodistribution bone
[5] = brain, rats, read-out: biodistribution brain
[6] = eyes, rats, read-out: biodistribution eyes
[7] = heart, rats, read-out: biodistribution heart
[8] = kidneys, rats, read-out: biodistribution kidneys
[9] = liver, rats, read-out: biodistribution liver
[10] = lungs, rats, read-out: biodistribution lungs
[11] = muscle, rats, read-out: biodistribution muscle
[12] = pancreas, rats, read-out: biodistribution pancreas
[13] = skin, rats, read-out: biodistribution skin
[14] = spleen, rats, read-out: biodistribution spleen
[15] = stomach, rats, read-out: biodistribution stomach
[16] = tail, rats, read-out: biodistribution tail
[17] = thymus, rats, read-out: biodistribution thymus
[18] = thyroid, rats, read-out: biodistribution thyroid
[19] = total git, rats, read-out: biodistribution tot GIT

- tissue uptake at 0.5 min [1, 3]: 2.79 %ID/g
- tissue uptake at 1 min [1, 3]: 2.77 %ID/g
- tissue uptake at 0.05 h ([1]; blood, rats, 3 minutes, selected data, read-out: Blood): 1.32 %ID/g
- tissue uptake at 5 min [1, 3]: 0.94 %ID/g
- tissue uptake at 10 min [1, 3]: 0.77 %ID/g
- tissue uptake at 0.5 min [1, 4]: 0.34 %ID/g
- tissue uptake at 1 min [1, 4]: 0.37 %ID/g
- tissue uptake at 0.05 h ([1]; bone, rats, 3 min, read-out: biodistribution bone): 0.25 %ID/g
- tissue uptake at 5 min [1, 4]: 0.19 %ID/g
- tissue uptake at 10 min [1, 4]: 0.15 %ID/g
- tissue uptake at 0.5 min [1, 5]: 0.14 %ID/g
- tissue uptake at 1 min [1, 5]: 0.09 %ID/g
- tissue uptake at 0.05 h ([1]; brain, rats, 3 min, read-out: biodistribution brain): 0.06 %ID/g
- tissue uptake at 5 min [1, 5]: 0.04 %ID/g
- tissue uptake at 10 min [1, 5]: 0.03 %ID/g
- tissue uptake at 0.5 min [1, 6]: 0.11 %ID/g
- tissue uptake at 1 min [1, 6]: 0.15 %ID/g
- tissue uptake at 0.05 h ([1]; eyes, rats, 3 min, read-out: biodistribution eyes): 0.12 %ID/g
- tissue uptake at 5 min [1, 6]: 0.1 %ID/g
- tissue uptake at 10 min [1, 6]: 0.1 %ID/g
- tissue uptake at 0.5 min [1, 7]: 0.87 %ID/g
- tissue uptake at 1 min [1, 7]: 0.93 %ID/g
- tissue uptake at 0.05 h ([1]; heart, rats, 3 min, read-out: biodistribution heart): 0.46 %ID/g
- tissue uptake at 5 min [1, 7]: 0.36 %ID/g
- tissue uptake at 10 min [1, 7]: 0.28 %ID/g
- tissue uptake at 0.05 h ([1]; kidney, rats, 3 minutes, selected data, read-out: Kidney): 8.9 %ID/g
- tissue uptake at 0.5 min [1, 8]: 6.42 %ID/g
- tissue uptake at 1 min [1, 8]: 8.37 %ID/g
- tissue uptake at 0.05 h ([1]; kidneys, rats, 3 min, read-out: biodistribution kidneys): 8.9 %ID/g
- tissue uptake at 5 min [1, 8]: 7.26 %ID/g
- tissue uptake at 10 min [1, 8]: 3.35 %ID/g
- tissue uptake at 0.5 min [1, 9]: 4.61 %ID/g
- tissue uptake at 1 min [1, 9]: 6.28 %ID/g
- tissue uptake at 0.05 h ([1]; liver, rats, 3 minutes, selected data, read-out: Liver): 5.93 %ID/g
- tissue uptake at 5 min [1, 9]: 3.93 %ID/g
- tissue uptake at 10 min [1, 9]: 1.89 %ID/g
- tissue uptake at 0.5 min [1, 10]: 1.2 %ID/g
- tissue uptake at 1 min [1, 10]: 1.17 %ID/g
- tissue uptake at 0.05 h ([1]; lungs, rats, 3 min, read-out: biodistribution lungs): 0.79 %ID/g
- tissue uptake at 5 min [1, 10]: 0.59 %ID/g
- tissue uptake at 10 min [1, 10]: 0.48 %ID/g
- tissue uptake at 0.5 min [1, 11]: 0.22 %ID/g
- tissue uptake at 1 min [1, 11]: 0.24 %ID/g
- tissue uptake at 0.05 h ([1]; muscle, rats, 3 min, read-out: biodistribution muscle): 0.2 %ID/g
- tissue uptake at 5 min [1, 11]: 0.16 %ID/g
- tissue uptake at 10 min [1, 11]: 0.11 %ID/g
- tissue uptake at 0.5 min [1, 12]: 0.49 %ID/g
- tissue uptake at 1 min [1, 12]: 0.66 %ID/g
- tissue uptake at 0.05 h ([1]; pancreas, rats, 3 min, read-out: biodistribution pancreas): 0.44 %ID/g
- tissue uptake at 5 min [1, 12]: 0.52 %ID/g
- tissue uptake at 10 min [1, 12]: 0.27 %ID/g
- tissue uptake at 0.5 min [1, 13]: 0.29 %ID/g
- tissue uptake at 1 min [1, 13]: 0.45 %ID/g
- tissue uptake at 0.05 h ([1]; skin, rats, 3 min, read-out: biodistribution skin): 0.42 %ID/g
- tissue uptake at 5 min [1, 13]: 0.35 %ID/g
- tissue uptake at 10 min [1, 13]: 0.33 %ID/g
- tissue uptake at 0.5 min [1, 14]: 0.62 %ID/g
- tissue uptake at 1 min [1, 14]: 0.58 %ID/g
- tissue uptake at 0.05 h ([1]; spleen, rats, 3 min, read-out: biodistribution spleen): 0.33 %ID/g
- tissue uptake at 5 min [1, 14]: 0.25 %ID/g
- tissue uptake at 10 min [1, 14]: 0.16 %ID/g
- tissue uptake at 0.5 min [1, 15]: 0.41 %ID/g
- tissue uptake at 1 min [1, 15]: 0.68 %ID/g
- tissue uptake at 0.05 h ([1]; stomach, rats, 3 min, read-out: biodistribution stomach): 2.08 %ID/g
- tissue uptake at 5 min [1, 15]: 0.98 %ID/g
- tissue uptake at 10 min [1, 15]: 0.9 %ID/g
- tissue uptake at 0.5 min [1, 16]: 0.81 %ID/g
- tissue uptake at 1 min [1, 16]: 0.66 %ID/g
- tissue uptake at 0.05 h ([1]; tail, rats, 3 min, read-out: biodistribution tail): 0.64 %ID/g
- tissue uptake at 5 min [1, 16]: 1.16 %ID/g
- tissue uptake at 10 min [1, 16]: 0.55 %ID/g
- tissue uptake at 0.5 min [1, 17]: 0.39 %ID/g
- tissue uptake at 1 min [1, 17]: 0.37 %ID/g
- tissue uptake at 0.05 h ([1]; thymus, rats, 3 min, read-out: biodistribution thymus): 0.27 %ID/g
- tissue uptake at 5 min [1, 17]: 0.17 %ID/g
- tissue uptake at 10 min [1, 17]: 0.15 %ID/g
- tissue uptake at 0.5 min [1, 18]: 1.41 %ID/g
- tissue uptake at 1 min [1, 18]: 1.71 %ID/g
- tissue uptake at 0.05 h ([1]; thyroid, rats, 3 min, read-out: biodistribution thyroid): 0.81 %ID/g
- tissue uptake at 5 min [1, 18]: 0.58 %ID/g
- tissue uptake at 10 min [1, 18]: 0.44 %ID/g
- tissue uptake at 0.5 min [1, 19]: 0.48 %ID/g
- tissue uptake at 1 min [1, 19]: 0.58 %ID/g
- tissue uptake at 0.05 h ([1]; total git, rats, 3 min, read-out: biodistribution tot GIT): 1.56 %ID/g
- tissue uptake at 5 min [1, 19]: 2.27 %ID/g
- tissue uptake at 10 min [1, 19]: 3.18 %ID/g
- biodistribution blood ([1]; rats, 3 min): 1.32 % Injected dose per gram
- biodistribution liver ([1]; rats, 3 min): 5.93 % Injected dose per gram
- biodistribution GIT ([2]; 1 min): 3.74 % Injected dose
- biodistribution blood ([2]; 1 min): 23.14 % Injected dose
- biodistribution bone ([2]; 1 min): 7.88 % Injected dose
- biodistribution heart ([2]; 1 min): 0.49 % Injected dose
- biodistribution kidney ([2]; 1 min): 8.04 % Injected dose
- biodistribution liver ([2]; 1 min): 14.68 % Injected dose
- biodistribution lungs ([2]; 1 min): 1.36 % Injected dose
- biodistribution muscle ([2]; 1 min): 19.67 % Injected dose
- biodistribution skin ([2]; 1 min): 13.37 % Injected dose
- biodistribution spleen ([2]; 1 min): 0.19 % Injected dose
- biodistribution stomach ([2]; 1 min): 0.67 % Injected dose
- biodistribution tail ([2]; 1 min): 4.05 % Injected dose
- biodistribution urine ([2]; 1 min): 0.09 % Injected dose
- biodistribution GIT ([2]; 3 min): 4.86 % Injected dose
- biodistribution blood ([2]; 3 min): 14.96 % Injected dose
- biodistribution bone ([2]; 3 min): 6.29 % Injected dose
- biodistribution heart ([2]; 3 min): 0.34 % Injected dose
- biodistribution kidney ([2]; 3 min): 10.44 % Injected dose
- biodistribution liver ([2]; 3 min): 14.52 % Injected dose
- biodistribution lungs ([2]; 3 min): 1.19 % Injected dose
- biodistribution muscle ([2]; 3 min): 14.89 % Injected dose
- biodistribution skin ([2]; 3 min): 13.1 % Injected dose
- biodistribution spleen ([2]; 3 min): 0.16 % Injected dose
- biodistribution stomach ([2]; 3 min): 0.998 % Injected dose
- biodistribution tail ([2]; 3 min): 6.89 % Injected dose
- biodistribution urine ([2]; 3 min): 2.78 % Injected dose
- biodistribution GIT ([2]; 5 min): 3.38 % Injected dose
- biodistribution blood ([2]; 5 min): 7.4 % Injected dose
- biodistribution bone ([2]; 5 min): 2.99 % Injected dose
- biodistribution heart ([2]; 5 min): 0.22 % Injected dose
- biodistribution kidney ([2]; 5 min): 5.45 % Injected dose
- biodistribution liver ([2]; 5 min): 7.75 % Injected dose
- biodistribution lungs ([2]; 5 min): 0.72 % Injected dose
- biodistribution muscle ([2]; 5 min): 6.73 % Injected dose
- biodistribution skin ([2]; 5 min): 7.96 % Injected dose
- biodistribution spleen ([2]; 5 min): 0.07 % Injected dose
- biodistribution stomach ([2]; 5 min): 0.6 % Injected dose
- biodistribution tail ([2]; 5 min): 30.12 % Injected dose
- biodistribution urine ([2]; 5 min): 1.06 % Injected dose
- biodistribution GIT ([2]; 10 min): 8.11 % Injected dose
- biodistribution blood ([2]; 10 min): 7.15 % Injected dose
- biodistribution bone ([2]; 10 min): 2.76 % Injected dose
- biodistribution heart ([2]; 10 min): 0.15 % Injected dose
- biodistribution kidney ([2]; 10 min): 5.14 % Injected dose
- biodistribution liver ([2]; 10 min): 7.95 % Injected dose
- biodistribution lungs ([2]; 10 min): 0.53 % Injected dose
- biodistribution muscle ([2]; 10 min): 8.73 % Injected dose
- biodistribution skin ([2]; 10 min): 11.02 % Injected dose
- biodistribution spleen ([2]; 10 min): 0.06 % Injected dose
- biodistribution stomach ([2]; 10 min): 1.3 % Injected dose
- biodistribution tail ([2]; 10 min): 18.31 % Injected dose
- biodistribution urine ([2]; 10 min): 2.67 % Injected dose
- biodistribution GIT ([2]; 30 min): 16.24 % Injected dose
- biodistribution blood ([2]; 30 min): 3.58 % Injected dose
- biodistribution bone ([2]; 30 min): 2.27 % Injected dose
- biodistribution heart ([2]; 30 min): 0.09 % Injected dose
- biodistribution kidney ([2]; 30 min): 4 % Injected dose
- biodistribution liver ([2]; 30 min): 5.71 % Injected dose
- biodistribution lungs ([2]; 30 min): 0.43 % Injected dose
- biodistribution muscle ([2]; 30 min): 5.48 % Injected dose
- biodistribution skin ([2]; 30 min): 5.58 % Injected dose
- biodistribution spleen ([2]; 30 min): 0.05 % Injected dose
- biodistribution stomach ([2]; 30 min): 2.06 % Injected dose
- biodistribution tail ([2]; 30 min): 7.67 % Injected dose
- biodistribution urine ([2]; 30 min): 3.84 % Injected dose
Compound: O=C(O)CN(CCN(CC(=O)O)CC(=O)Nc1ccc(Cl)cc1O)CC(=O)Nc1ccc(Cl)cc1O [Compound 2]
- hepatobiliary passage ([1]; Tables 2 and 4): specifically traverse the hepatobiliary system
- liver versus kidney uptake ([1]; rats): preference for the liver uptake as opposed to the kidney
